Data published in patent US9663429B2, “Vitamin D analogues of pharmaceutical interest” (UNIVERSIDADE DE SANTIAGO DE COMPOSTELA, priority 2013, dated 2017).
pEC50, pIC50: −log10 of the molar value. “Also recorded” adds a separate entry of the source.

Assays:
[1] = Calcaemic effects in mice at 0.3 μg/kg; format: in vivo; details: for Calcaemic activity: blood calcium in percentage over that induced by 1,25D: ip every two days for 21 days, 0.3 μg/kg (table title prints 0.3 mg/kg); for Hypercalcemia (serum calcium versus control): 0.3 μg/Kg ip every 2 days for 21 days
Description: FIG. 8. […] 1,25D and the various analogues were injected intraperitoneally every 2 days for 21 days at a dose of 0.3 μg/Kg. After treatment the calcium levels in the serum were evaluated and the values were represented as mean±SD in […].
(§1) Calcium mobilization of analogues was determined in 28 male CD-1 mice (6-8 weeks old). 6 Groups of 4 mice each were established, which mice were intraperitoneally (ip) injected with 0.3 μg/kg weight of each analogue or 1,25D dissolved in sesame oil every two days for 3 weeks. A seventh group of 4 mice treated with the carrier (sesame oil) served as controls. Calcium levels in blood were determined by QuantiChomCalciumAssay Kit (BioAssaySystems, Hayward, Calif., USA). In addition, a dose-response assay was performed to assess the effect of administration of the analogues PG-403 and PG136p and hormone (1,25D) at different doses on calcium levels. This assay was performed in male mice (5 mice per group), and the doses used were: 0.1, 0.5, 1, and 5 μg/kg weight of each analogue or 1,25D, i.p. administered every two days for 21 days. In addition, a control group (mice treated with sesame oil) was used.

[2] = Dose-response assay of serum calcium in mice; format: in vivo
Description: FIG. 9. […] 1,25D (dose of 0.3 μg/kg) and analogues (doses of 0.1, 0.5, 1 and 5 μg/kg) were injected intraperitoneally every 2 days for 21 days. After treatment the calcium levels in the serum were evaluated and the values were represented as mean±SD in […].
as §1

[3] = Body weight of mice in the dose-response assay; format: in vivo
Description: FIG. 10. […] 1,25D (dose of 0.3 μg/kg) and analogues (doses of 0.1, 0.5, 1 and 5 μg/kg) were injected intraperitoneally every 2 days for 21 days. Animals were weighed every two days during treatment. The values were represented as mean±SD in […].
In this experiment, also the weight of the animals was quantified to determine whether there was any modification throughout the treatment.

[4] = target: T1, vitamin D receptor (VDR) (Homo sapiens, UniProt P11473); experiment: Competitive binding to vitamin D receptor (Polarscreen VDR competitor assay, fluorescence polarisation); details: for Binding to VDR % relative to 1,25D (100%): activity relative to natural hormone 1,25D normalised at 100%; for pIC50: competitive displacement, 10^−11 to 10^−5 M
T1 construct: purchased Invitrogen
T1 sequence (P11473 1-427): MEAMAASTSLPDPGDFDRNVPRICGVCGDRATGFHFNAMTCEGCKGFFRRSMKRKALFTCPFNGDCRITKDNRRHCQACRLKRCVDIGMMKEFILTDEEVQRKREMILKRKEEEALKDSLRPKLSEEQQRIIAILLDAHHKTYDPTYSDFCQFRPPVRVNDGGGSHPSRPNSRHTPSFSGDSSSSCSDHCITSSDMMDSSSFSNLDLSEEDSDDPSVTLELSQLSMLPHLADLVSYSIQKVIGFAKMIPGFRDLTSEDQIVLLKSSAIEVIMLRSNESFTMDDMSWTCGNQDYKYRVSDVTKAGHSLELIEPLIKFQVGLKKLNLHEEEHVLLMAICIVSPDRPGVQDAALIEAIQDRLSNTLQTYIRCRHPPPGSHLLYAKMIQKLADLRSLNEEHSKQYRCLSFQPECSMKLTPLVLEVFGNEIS
Description: FIG. 1. […] The values represent the mean of at least two experiments.
Polarised fluorescence was determined in 384-well black plates for 200 ms/well using a Mithras LB 940 device (Berthold Technologies).

[5] = test system: MCF-7 cells; experiment: 3D cell culture on matrigel (spheroid size), MCF-7; format: cell-based, human; details: for Cell proliferation percentage MCF-7 3D: 10^−7 M, matrigel spheroids, 100% control cells
Description: FIG. 7. MCF-7 cells were shown for 10 days on a matrigel bed until they formed a 3D cellular structure. […] After treatment, the spheroids were stained with DAPI (4′,6-diamino-2-phenylindole) for 1 hour and photographed under an inverted microscope with ultraviolet light. The size of these spheroids was measured and the values were represented as mean±SD in relative units. […] Those cells treated with the carrier were considered as the control value.
For 3D cell culture, a cushion of 200 μl of Matrigel (BD Biosciences) was used in each of the wells of multi-well plates of 24 wells. They were incubated at 37° C. for 20 minutes for their solidification and subsequently the cell suspension (5×10^3 cells per 100 μl volume of medium) was loaded onto the matrigel solidified and another incubation at 37° C. was performed for 30 minutes so that the cells penetrated properly on the matrigel base. 500 μl of DMEM medium were added to each well, and the cells were maintained in culture for 10 days. At the end of this time, the cells were started to be treated with each of the 5 analogues used and 1,25D.

[6] = test system: PC-3 cells; experiment: MTT proliferation assay, PC-3; details: 10^−7 M, 48 hours, 100% control cells
Description: Proliferation assay in the PC-3 cell line of human prostate adenocarcinoma. […] The values were plotted in the graphs as mean±SD. As proliferation value, 100% was considered the normal growth of PC-3 cells treated with the carrier in the control.
(§2) The cells were cultured in 90-mm plates in essential culture medium DMEM, supplemented with 10% bovine foetal serum free of steroid hormones, 100 U/ml penicillin, 100 μg/ml streptomycin and 2 mM non-essential amino acids (L-glutamine) at 37° C. in a humid atmosphere O2/CO2 (95/5%).
(§3) The first is an indirect method for determining living cells, wherein the yellow water soluble MTT is reduced in mitochondria, thus generating a purple insoluble product (formazan). […] After this time, the culture medium was removed and 500 μl of dimethylsulfoxide (DMSO) was added to each well to solubilise the formazan incorporated by the cells.

[7] = test system: MCF-7 cells; experiment: MTT proliferation assay, MCF-7; details: 10^−7 M, 48 hours, 100% control cells
Description: Proliferation assay in the MCF-7 cell line of human breast adenocarcinoma. […] The values were plotted in the graphs as mean±SD. As proliferation value, 100% was considered the normal growth of MCF-7 cells treated with the carrier in the control.
as §2
Cell proliferation/toxicity in breast cancer lines was assessed by both incorporation assays of 3-(4,5-dimethylthiazol-2-yl)-2,5-difeniltetrazolium (MTT) bromide and cell culture in three dimensions (3D).
as §3

[8] = test system: HaCaT cells; experiment: MTT proliferation assay, HaCaT; details: 10^−7 M, 48 hours, 100% control cells
Description: Proliferation assay in the HaCaT cell line of human keratinocytes. […] The values were plotted in the graphs as mean±SD. As proliferation value, 100% was considered the normal growth of HaCaT cells treated with the carrier in the control.
as §2, §3

[9] = test system: SKOV-3 cells; experiment: MTT proliferation assay, SKOV-3; details: 10^−7 M, 48 hours, 100% control cells
Description: Proliferation assay in the SKOV-3 cell line of human ovary adenocarcinoma. […] The values were plotted in the graphs as mean±SD. As proliferation value, 100% was considered the normal growth of SKOV-3 cells treated with the carrier in the control.
as §2, §3

[10] = test system: 24-hydroxylase promoter, CYP24A1 (pCYP24A1-Luc); experiment: Transactivation reporter assay (pCYP24A1-Luc) in MCF-7 cells; details: for pEC50: Homo sapiens, MCF7, 24 h, read-out: Transcriptional activity EC50; for Transcriptional activity % relative to 1,25D (100%): MCF-7 cells, pCYP24A1-Luc
Description: MCF-7 cells were transfected with the reporter vector of 24-hydroxylase (pCYP24A1-Luc vector) for 24 hours. […] The experiments were performed at least twice. The error bars represent the standard deviation (SD).

Row | Structure (SMILES) | Blood calcium ([1]; 0.3 μg/kg ip every two days for 3 weeks, carrier 11.9±0.7) [mg/dL] | Calcaemic activity: blood calcium in percentage over that induced by 1,25D [1] [%] | Serum calcium versus controls, 1,25D ([2]; 0.5 μg/kg weight ip every two days for 21 days) | Body weight, 1,25D ([3]; mice, 0.5 μg/kg weight ip every two days for 21 days) | Binding to VDR % relative to 1,25D (100%) [4] [%] | pIC50 [4] | Cell proliferation percentage MCF-7 3D [5] [%] | Hypercalcemia (serum calcium versus control) [1] | Cell proliferation percentage PC-3 2D [6] [%] | Cell proliferation percentage MCF-7 2D [7] [%] | Cell proliferation percentage HaCaT 2D [8] [%] | Cell proliferation percentage SKOV-3 2D [9] [%] | pEC50 [10] | Transcriptional activity % relative to 1,25D (100%) [10] [%] | Three-dimensional growth of MCF-7 spheroids (in words) ([5]; 10^−7 M for 7 days) | Serum calcium versus control animals (placebo) ([2]; 5 μg/kg weight ip every two days for 21 days) | Serum calcium versus controls, analogues ([2]; doses 0.1, 0.5, 1 and 5 μg/kg ip every 2 days for 21 days) | Body weight versus control animals, analogues ([3]; mice, 0.1, 0.5, 1 and 5 μg/kg ip every 2 days for 21 days)
1 | C=C1/C(=C\C=C2/CCC[C@]3(C)[C@@H]([C@H](C)CCCC(C)(C)O)CC[C@@H]23)C[C@@H](O)C[C@@H]1O [1,25D, 1,25-dihydroxyvitamin D3, reference compound] | 14.7 ± 0.58 | 100 | induces a significant increase in serum calcium | produced a significant decrease in the weight of the animals | – | – | – | – | – | – | – | – | – | – | – | – | – | –
2 | C=C1/C(=C\C=C(/CCCC)c2cccc(CCCCCC(C)(C)O)c2)C[C@@H](O)C[C@@H]1O [PG-128, (1R,3S,Z)-5-((E)-3-(3-(6-hydroxy-6-methylheptyl)phenyl)hept-2-enyliden)-4-methylenecyclohexane-1,3-diol] | – | 34 | – | – | 12 | 7.87 | 84 | does not produce hypercalcemia | 84 | 74 | 71 | 81 | 8.00 | 20 | – | – | – | –
3 | C=C1/C(=C\C=C(/CCC)c2cccc(CCCCCC(C)(C)O)c2)C[C@@H](O)C[C@@H]1O [PG-152, (1R,3S,Z)-5-((E)-3-(3-(6-hydroxy-6-methylheptyl)phenyl)hex-2-enyliden)-4-methylenecyclohexane-1,3-diol] | – | 41 | – | – | 10 | 7.75 | 74 | does not produce hypercalcemia | 83 | 69 | 71 | 82 | 8.03 | 21 | – | – | – | –
4 | C=C1/C(=C\C=C(/CCCCCC)c2cccc(CCCCCC(C)(C)O)c2)C[C@@H](O)C[C@@H]1O [PG-156, (1R,3S,Z)-5-((E)-3-(3-(6-hydroxy-6-methylheptyl)phenyl)non-2-enyliden)-4-methylenecyclohexane-1,3-diol] | – | 0 | – | – | 9 | 7.74 | 79 | does not produce hypercalcemia | 80 | 78 | 74 | 76 | 7.94 | 17 | – | – | – | –
5 | C=C1/C(=C\C=C(/CCCCCC(C)(C)O)c2cccc(CCCCCC(C)(C)O)c2)C[C@@H](O)C[C@@H]1O [PG-385, (1R,3S,Z)-5-((E)-9-hydroxy-3-(3-(6-hydroxy-6-methylheptyl)phenyl)-9-methyldec-2-enyliden)-4-methylenecyclohexane-1,3-diol] | – | 9 | – | – | – | – | – | does not produce hypercalcemia | – | 69 | – | – | 8.25 | 35 | – | – | – | –
6 | C=C1/C(=C\C=C(/CCCCCCC)c2cccc(CCCCCC(C)(C)O)c2)C[C@@H](O)C[C@@H]1O [PG-403, (1R,3S,Z)-5-((E)-3-(3-(6-hydroxy-6-methylheptyl)phenyl)dec-2-enyliden)-4-methylenecyclohexane-1,3-diol] | – | 0 | – | – | 7 | 7.63 | 55 | does not produce hypercalcemia | 79 | 69 | 71 | 83 | 7.46 | 6 | inhibit the three-dimensional growth, similarly to 1,25D | did not significantly raise serum calcium | does not produce hypercalcemia; also recorded: None of the two analogues tested (PG136p and PG-403) induces increased serum calcium | does not change the body weight; also recorded: did not significantly affect the body weight
7 | C=C1/C(=C\C=C\c2cc(CCCCCC(C)(C)O)cc(CCCCCC(C)(C)O)c2)C[C@@H](O)C[C@@H]1O [PG-433, (1R,3S,Z)-5-((E)-3-(3.5-(6-hydroxy-6-methylheptyl)phenyl)allyliden)-4-methylenecyclohexane-1,3-diol] | – | 8 | – | – | – | – | – | does not produce hypercalcemia | – | 69 | – | – | 8.53 | 67 | – | – | – | –
